From ChEMBL document CHEMBL4177616, “Potent anti-melanogenic activity and favorable toxicity profile of selected 4-phenyl hydroxycoumarins in the zebrafish model and the computational molecular modeling studies” (Bioorg Med Chem, 2017)

Columns and labels:
[1] = Toxicity in wild type zebrafish embryos assessed as dead embryo at 20 ug/ml treated for 96 hrs post fertilization starting from 6 hrs post fertilization by inverted microscopic analysis relative to control; type: organism-based, Danio rerio; settings: in vivo, read-out: Activity
Melanocyte [2] = experiment: Cytotoxicity against wild type zebrafish embryo melanocytes assessed as punctate cells at 12.5 ug/ml treated for 72 hrs post fertilization starting from 6 to 24 hrs post fertilization; type: cell-based, Danio rerio
Melanocyte [3] = experiment: Cytotoxicity against wild type zebrafish embryo melanocytes assessed as small and rounded cells at 12.5 ug/ml treated for 72 hrs post fertilization starting from 6 to 24 hrs post fertilization; type: cell-based, Danio rerio
Melanocyte [4] = experiment: Cytotoxicity against wild type zebrafish embryo melanocytes assessed as change in morphology; type: cell-based, Danio rerio
Melanocyte [5] = experiment: Cytotoxicity against wild type zebrafish embryo melanocytes assessed as number of melanocyte at 2.5 mg/ml treated for 72 hrs post fertilization starting from 6 to 24 hrs post fertilization; type: cell-based, Danio rerio
Danio rerio [6] = species: Danio rerio; experiment: Toxicity in wild type zebrafish embryos assessed as normal embryo at 50 ug/ml treated for 96 hrs post fertilization starting from 6 hrs post fertilization by inverted microscopic analysis relative to control; type: organism-based; settings: in vivo
Danio rerio [7] = species: Danio rerio; experiment: Toxicity in wild type zebrafish embryos assessed as growth retardation at 25 ug/ml treated for 96 hrs post fertilization starting from 6 hrs post fertilization by inverted microscopic analysis relative to control; type: organism-based; settings: in vivo
Danio rerio [8] = species: Danio rerio; experiment: Toxicity in wild type zebrafish embryos assessed as growth retardation at 20 ug/ml treated for 96 hrs post fertilization starting from 6 hrs post fertilization by inverted microscopic analysis relative to control; type: organism-based; settings: in vivo
Danio rerio [9] = species: Danio rerio; experiment: Toxicity in wild type zebrafish embryos assessed as growth retardation at 5 ug/ml treated for 96 hrs post fertilization starting from 6 hrs post fertilization by inverted microscopic analysis relative to control; type: organism-based; settings: in vivo
Danio rerio [10] = species: Danio rerio; experiment: Toxicity in wild type zebrafish embryos assessed as notochord at 50 ug/ml treated for 96 hrs post fertilization starting from 6 hrs post fertilization by inverted microscopic analysis relative to control; type: organism-based; settings: in vivo
Danio rerio [11] = species: Danio rerio; experiment: Toxicity in wild type zebrafish embryos assessed as notochord at 20 ug/ml treated for 96 hrs post fertilization starting from 6 hrs post fertilization by inverted microscopic analysis relative to control; type: organism-based; settings: in vivo
Danio rerio [12] = species: Danio rerio; experiment: Toxicity in wild type zebrafish embryos assessed as notochord at 10 ug/ml treated for 96 hrs post fertilization starting from 6 hrs post fertilization by inverted microscopic analysis relative to control; type: organism-based; settings: in vivo
Danio rerio [13] = species: Danio rerio; experiment: Toxicity in wild type zebrafish embryos assessed as eyes at 25 ug/ml treated for 96 hrs post fertilization starting from 6 hrs post fertilization by inverted microscopic analysis relative to control; type: organism-based; settings: in vivo
Danio rerio [14] = species: Danio rerio; experiment: Toxicity in wild type zebrafish embryos assessed as eyes at 20 ug/ml treated for 96 hrs post fertilization starting from 6 hrs post fertilization by inverted microscopic analysis relative to control; type: organism-based; settings: in vivo
Danio rerio [15] = species: Danio rerio; experiment: Toxicity in wild type zebrafish embryos assessed as eyes at 10 ug/ml treated for 96 hrs post fertilization starting from 6 hrs post fertilization by inverted microscopic analysis relative to control; type: organism-based; settings: in vivo
Danio rerio [16] = species: Danio rerio; experiment: Toxicity in wild type zebrafish embryos assessed as otoliths at 25 ug/ml treated for 96 hrs post fertilization starting from 6 hrs post fertilization by inverted microscopic analysis relative to control; type: organism-based; settings: in vivo
Danio rerio [17] = species: Danio rerio; experiment: Toxicity in wild type zebrafish embryos assessed as otoliths at 20 ug/ml treated for 96 hrs post fertilization starting from 6 hrs post fertilization by inverted microscopic analysis relative to control; type: organism-based; settings: in vivo
Danio rerio [18] = experiment: Toxicity in wild type zebrafish embryos assessed as pericardial edema at 20 ug/ml treated for 96 hrs post fertilization starting from 6 hrs post fertilization by inverted microscopic analysis relative to control; type: organism-based; settings: in vivo
Danio rerio [19] = experiment: Toxicity in wild type zebrafish embryos assessed as pericardial edema at 5 ug/ml treated for 96 hrs post fertilization starting from 6 hrs post fertilization by inverted microscopic analysis relative to control; type: organism-based; settings: in vivo
Danio rerio [20] = experiment: Toxicity in wild type zebrafish embryos assessed as yolk edema at 25 ug/ml treated for 96 hrs post fertilization starting from 6 hrs post fertilization by inverted microscopic analysis relative to control; type: organism-based; settings: in vivo
Danio rerio [21] = experiment: Toxicity in wild type zebrafish embryos assessed as yolk edema at 5 ug/ml treated for 96 hrs post fertilization starting from 6 hrs post fertilization by inverted microscopic analysis relative to control; type: organism-based; settings: in vivo
Danio rerio [22] = species: Danio rerio; experiment: Toxicity in wild type zebrafish embryos assessed as heart beat at 10 ug/ml treated for 96 hrs post fertilization starting from 6 hrs post fertilization by inverted microscopic analysis relative to control; type: organism-based; settings: in vivo
Danio rerio [23] = species: Danio rerio; experiment: Toxicity in wild type zebrafish embryos assessed as heart beat at 5 ug/ml treated for 96 hrs post fertilization starting from 6 hrs post fertilization by inverted microscopic analysis relative to control; type: organism-based; settings: in vivo
Danio rerio [24] = species: Danio rerio; experiment: Toxicity in wild type zebrafish embryos assessed as blood circulation at 50 ug/ml treated for 96 hrs post fertilization starting from 6 hrs post fertilization by inverted microscopic analysis relative to control; type: organism-based; settings: in vivo
Danio rerio [25] = species: Danio rerio; experiment: Toxicity in wild type zebrafish embryos assessed as blood circulation at 25 ug/ml treated for 96 hrs post fertilization starting from 6 hrs post fertilization by inverted microscopic analysis relative to control; type: organism-based; settings: in vivo
Danio rerio [26] = species: Danio rerio; experiment: Toxicity in wild type zebrafish embryos assessed as blood circulation at 20 ug/ml treated for 96 hrs post fertilization starting from 6 hrs post fertilization by inverted microscopic analysis relative to control; type: organism-based; settings: in vivo
Danio rerio [27] = species: Danio rerio; experiment: Toxicity in wild type zebrafish embryos assessed as blood circulation at 5 ug/ml treated for 96 hrs post fertilization starting from 6 hrs post fertilization by inverted microscopic analysis relative to control; type: organism-based; settings: in vivo
Danio rerio [28] = species: Danio rerio; experiment: Toxicity in wild type zebrafish embryos assessed as unhatched embryo at 25 ug/ml treated for 96 hrs post fertilization starting from 6 hrs post fertilization by inverted microscopic analysis relative to control; type: organism-based; settings: in vivo
Danio rerio [29] = species: Danio rerio; experiment: Toxicity in wild type zebrafish embryos assessed as unhatched embryo at 10 ug/ml treated for 96 hrs post fertilization starting from 6 hrs post fertilization by inverted microscopic analysis relative to control; type: organism-based; settings: in vivo
Danio rerio [30] = species: Danio rerio; experiment: Toxicity in wild type zebrafish embryos assessed as head malformation at 25 ug/ml treated for 96 hrs post fertilization starting from 6 hrs post fertilization by inverted microscopic analysis relative to control; type: organism-based; settings: in vivo
Danio rerio [31] = species: Danio rerio; experiment: Toxicity in wild type zebrafish embryos assessed as skeletal deformities at 10 ug/ml treated for 96 hrs post fertilization starting from 6 hrs post fertilization by inverted microscopic analysis relative to control; type: organism-based; settings: in vivo
Tyrosinase (Danio rerio) = molecular target: T1, Tyrosinase (Danio rerio) (UniProt A0A8M1PAD4); experiment: Potency index, ratio of kojic acid IC50 to compound IC50 for zebrafish embryo tyrosinase assessed as melanin production
T1 sequence (whole entry): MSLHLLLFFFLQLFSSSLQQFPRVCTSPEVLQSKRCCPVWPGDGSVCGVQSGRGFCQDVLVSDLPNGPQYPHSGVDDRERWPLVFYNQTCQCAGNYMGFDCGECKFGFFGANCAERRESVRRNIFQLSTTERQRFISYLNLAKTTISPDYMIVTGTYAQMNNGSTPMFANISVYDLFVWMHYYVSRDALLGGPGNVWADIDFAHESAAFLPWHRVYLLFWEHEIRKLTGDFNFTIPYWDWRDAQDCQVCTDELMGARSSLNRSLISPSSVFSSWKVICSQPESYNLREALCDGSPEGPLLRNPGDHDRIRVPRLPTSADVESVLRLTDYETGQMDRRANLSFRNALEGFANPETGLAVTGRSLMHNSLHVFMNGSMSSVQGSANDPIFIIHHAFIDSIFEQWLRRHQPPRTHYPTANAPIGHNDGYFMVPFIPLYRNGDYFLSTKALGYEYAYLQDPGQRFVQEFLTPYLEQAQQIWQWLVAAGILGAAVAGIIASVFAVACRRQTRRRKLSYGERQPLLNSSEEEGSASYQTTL

Structure (SMILES)	mortality at 20 ug/ml [1] [%]	Activity (Melanocyte [2])	Activity (Melanocyte [3])	Activity (Melanocyte [4])	Activity (Melanocyte [5])	Activity (Danio rerio [6]) [%]	Activity (Danio rerio [7]) [%]	Activity (Danio rerio [8]) [%]	Activity (Danio rerio [9]) [%]	Activity (Danio rerio [11]) [%]	Activity (Danio rerio [12]) [%]	Activity (Danio rerio [13]) [%]	Activity (Danio rerio [14]) [%]	Activity (Danio rerio [15]) [%]	Activity (Danio rerio [16]) [%]	Activity (Danio rerio [17]) [%]	Activity (Danio rerio [18]) [%]	Activity (Danio rerio [20]) [%]	Activity (Danio rerio [25]) [%]	Activity (Danio rerio [28]) [%]	other results
O=c1cc(-c2ccccc2)c2ccc(O)cc2o1	0	Non-Toxic	Non-Toxic	Dose-dependent effect and Tde	Non-Toxic	100	0	0	0	0	0	0	0	0	0	0	0	0	0	0	Activity (Danio rerio [10]): 0%; Activity (Danio rerio [19]): 0%; Activity (Danio rerio [21]): 0%; Activity (Danio rerio [22]): 0%; Activity (Danio rerio [23]): 0%; Activity (Danio rerio [24]): 0%; Activity (Danio rerio [26]): 0%; Activity (Danio rerio [27]): 0%; Activity (Danio rerio [29]): 0%; Activity (Danio rerio [30]): 0%; Activity (Danio rerio [31]): 0%; Ratio IC50 (Tyrosinase (Danio rerio)): 62
Oc1ccc(O)cc1 [HYDROQUINONE]	70	Non-Toxic	Non-Toxic	Dose-dependent effect and Tde	–	0	100	100	0	0	0	100	100	80	100	100	100	100	100	100	Activity (Danio rerio [19]): 71.7%; Activity (Danio rerio [21]): 0%; Activity (Danio rerio [22]): 90%; Activity (Danio rerio [23]): 0%; Activity (Danio rerio [26]): 100%; Activity (Danio rerio [27]): 0%; Activity (Danio rerio [29]): 0%; Activity (Danio rerio [31]): 90%
O=c1cc(-c2ccccc2)c2c(O)cc(O)cc2o1	0	Non-Toxic	Non-Toxic	Dose-dependent effect and Tde	Non-Toxic	75	0	0	0	0	0	0	0	0	0	0	0	0	0	0	Activity (Danio rerio [10]): 0%; Activity (Danio rerio [19]): 0%; Activity (Danio rerio [21]): 0%; Activity (Danio rerio [22]): 0%; Activity (Danio rerio [23]): 0%; Activity (Danio rerio [24]): 0%; Activity (Danio rerio [26]): 0%; Activity (Danio rerio [27]): 0%; Activity (Danio rerio [29]): 0%; Activity (Danio rerio [30]): 0%; Activity (Danio rerio [31]): 0%; Ratio IC50 (Tyrosinase (Danio rerio)): 147
O=c1cc(CO)occ1O [KOJIC ACID]	–	Non-Toxic	Non-Toxic	Dose-dependent effect and Tde	Non-Toxic	–	0	–	–	–	–	0	–	–	0	–	–	0	0	0	Activity (Danio rerio [30]): 0%
